Among the data in ChEMBL document CHEMBL6120955, “Computationally Driven Discovery of a BCR-ABL1 Kinase Inhibitor with Activity in Multidrug-Resistant Chronic Myeloid Leukemia” (J Med Chem, 2024) are efflux ratio, Stability and inhibition values, retold here.

Calls of active or inactive are those of the source. No cut-off for these calls is given here.

Data set [1] is described as follows: in vitro. The conditions noted are these: dog, MDCK-MDR1.
A short description of data set [2]: Stability in mouse hepatocytes. The data set is classed as ADME, cell-based, Hepatocyte.
The nature of data set [3]: Stability in human hepatocytes. The data set is classed as ADME, cell-based, Hepatocyte.
Data set [4] is filed under the species Homo sapiens. Briefly: Binding affinity to human PDGFR at 1 uM by KINOMEscan analysis.
Data set [5] addresses Mast/stem cell growth factor receptor Kit (Homo sapiens) (UniProt P10721). Briefly: Binding affinity to human KIT at 1 uM by KINOMEscan analysis.

Chain of Mast/stem cell growth factor receptor Kit (Homo sapiens) (P10721 whole entry): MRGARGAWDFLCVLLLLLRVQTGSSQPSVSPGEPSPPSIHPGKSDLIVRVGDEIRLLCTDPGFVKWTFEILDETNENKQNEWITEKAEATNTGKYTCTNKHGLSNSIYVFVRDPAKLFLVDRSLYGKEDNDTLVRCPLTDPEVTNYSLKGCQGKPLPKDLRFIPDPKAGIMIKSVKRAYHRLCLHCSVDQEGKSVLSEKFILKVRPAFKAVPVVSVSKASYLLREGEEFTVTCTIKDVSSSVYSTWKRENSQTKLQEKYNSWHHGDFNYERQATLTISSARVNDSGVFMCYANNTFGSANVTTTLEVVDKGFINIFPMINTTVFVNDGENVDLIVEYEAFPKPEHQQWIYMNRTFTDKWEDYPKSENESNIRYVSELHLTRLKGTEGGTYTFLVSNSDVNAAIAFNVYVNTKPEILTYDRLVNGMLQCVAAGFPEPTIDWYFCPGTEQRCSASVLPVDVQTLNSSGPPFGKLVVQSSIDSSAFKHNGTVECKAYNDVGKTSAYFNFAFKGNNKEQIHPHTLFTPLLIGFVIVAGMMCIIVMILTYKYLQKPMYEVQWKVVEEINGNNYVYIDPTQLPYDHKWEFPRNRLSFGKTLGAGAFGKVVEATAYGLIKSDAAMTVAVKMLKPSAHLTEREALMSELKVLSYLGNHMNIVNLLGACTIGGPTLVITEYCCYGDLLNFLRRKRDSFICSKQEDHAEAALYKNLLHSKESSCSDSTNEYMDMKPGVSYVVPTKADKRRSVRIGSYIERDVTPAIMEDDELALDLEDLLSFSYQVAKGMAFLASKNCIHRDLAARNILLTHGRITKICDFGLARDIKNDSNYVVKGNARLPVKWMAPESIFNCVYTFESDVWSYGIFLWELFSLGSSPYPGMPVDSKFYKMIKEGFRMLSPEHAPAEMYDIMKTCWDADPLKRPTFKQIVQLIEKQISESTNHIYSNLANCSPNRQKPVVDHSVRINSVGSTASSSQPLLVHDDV

In general, efflux ratio refers to the permeability from basolateral to apical divided by that in the opposite direction, in the common usage. With `COc1cc2ncnc(Nc3cccc(Cl)c3F)c2cc1OCCON1CCN(C)CC1`, in data set [1], the efflux ratio came to 0.9.
In the case of `COc1cc2c(Nc3ccc(Cl)c(OC)n3)c(C#N)cnc2cc1OCCON1CCN(C)CC1`, the Stability entry in data set [2] and in data set [3] was “Stable” throughout. Besides, the inhibition result in data set [4] and in data set [5] was “inactive” in each case.
